Four compounds from patent US6800645B1, “Substituted azabicyclic compounds” (Aventis Pharma Limited, priority 1996, dated 2004) can be followed below.

The structures appear in SMILES notation.

For orientation: melting point means the temperature of the solid-liquid transition. As to `COCc1nc2c(OC)ccc(C(O)(Cc3ccncc3)Cc3ccncc3)c2[nH]1` [Example 5, 1,3-bis-(4-pyridyl)-2-(7-methoxy-2-methoxymethyl-3H-benzimidazol-4-yl)-propan-2-ol], the melting point is 210 °C (dec.).

Turning to `COCc1nc2c(OC)ccc(C(=O)Cc3ccncc3)c2[nH]1` [Example 4, 1-(7-Methoxy-2-methoxymethyl-3H-benzimidazol-4-yl)-2-(4-pyridyl)ethanone], the melting point was 218 to 220 °C (dec.). Under `COc1ccc(Cn2cc(C)c3ccc(C(=O)c4ccccc4)cc32)cc1` [Example 24, [1-(4-Methoxy-benzyl)-3-methyl-1H-indol-6-yl]-phenyl methanone] stands 146 to 147 °C; under `Cc1ccc(S(=O)(=O)n2cc(C=O)c3ccc(C(=O)Nc4c(Cl)cncc4Cl)cc32)cc1` [Example 17, N-(3,5-Dichloro-pyridin-4-yl)-3-formyl-1-(toluene-4-sulphonyl)-1H-indole-6-carboxamide], 245 °C.
